Measured values published in patent US11542524B2, “Elimination of proliferating cells from stem cell-derived grafts” (priority 2017, dated 2023).
“Also recorded” adds a separate entry of the source.

Legend:
HSV-TK-transduced cells = assay: Cell proliferation assay, low copy number, HSV-TK; assay type: cell-based
Protocol: (§1) In another experiment, the cells were transduced with a low copy number of the plasmids and, thus, differences between the different nucleoside analogs could be observed. […] Ganciclovir at high concentrations is also toxic to non-transduced cells.
(§2) Finally, the cell proliferation assay was also performed with the SR39 or HSV-TK-transduced cells treated with penciclovir. […] Thus, penciclovir may be used as the prodrug with the suicide gene construct, such as HSV-TK, SR39, or UL97.

SR39-transduced cells = assay: Cell proliferation assay, low copy number, SR39; assay type: cell-based
Protocol: as §1, §2

[1] = test system: TK-PSC transplanted into the striatum; assay: Transplantation of TK-PSC into striatum and ganciclovir treatment (teratoma formation); assay type: in vivo, NOD/SCID mice
Protocol: (§3) FIGS. 3A-3C: Schedule of cell transplantation and ganciclovir treatment. Different transplantation and ganciclovir treatment protocols were used. (A) Schematic representation of the differentiation protocol towards DA neurons. Pluripotent stem cells were cultured as neurospheres for 1 week for midbrain orientation phase, followed by a 2 or 3 week-maturation phase. (B) Transplantation of undifferentiated pluripotent stem cells with early or late ganciclovir treatment. Early treatment: undifferentiated pluripotent stem cells were transplanted and ganciclovir (or PBS control) was applied by daily intra-peritoneal injection from day 4 to day 19 post-transplantation. Late treatment: undifferentiated pluripotent stem cells were transplanted and ganciclovir (or PBS control) was applied by daily intra-peritoneal injection from day 30 to day 45 post-transplantation. (C) Transplantation of 2 or 3 week NPC: NPC containing—neurospheres were dissociated and transplanted into mice striatum. Ganciclovir (or PBS control) treatment was given from day 4 to day 19 post-transplantation. For all protocols, animals were sacrificed 1 month after termination of ganciclovir treatment.
(§4) Stereotaxic engraftment and ganciclovir treatment:
(§5) Undifferentiated pluripotent stem cells (20000 cells/μL) and dissociated neurospheres (100.000 cells/μL) were injected in the striatum of anesthetized mice using a 27-G Hamilton syringe. Injection coordinates for lateral striatum were: bregma=0.74 mm, mediolateral=2.25 mm, dorsoventral=3.5 mm; for medial striatum: bregma=0.74 mm, mediolateral=1.4 mm, dorsoventral=2.8 mm. Mice were euthanized one month later after ganciclovir termination.
(§6) Morphological and Phenotypic Analysis of Injected Surviving Cells:
(§7) Anesthetized mice were fixed by intracardiac perfusion of 4% paraformaldehyde in phosphate-buffered saline. Immunohistochemical detection was performed on 10-μm thick free-floating cryostat sections using Alexa 488-, or 555-labeled secondary antibodies or the biotin-avidin-peroxidase complex method (Vector). The following primary antibodies were used: Nestin (rabbit polyclonal anti-human, from Chemicon, 1/400), β3-tubulin (mouse monoclonal from Sigma or rabbit polyclonal from Covance, 1/2000), Neuronal Nuclei-specific protein (NeuN, mouse monoclonal from Chemicon, 1/1000), Glial Fibrillary Acidic Protein (GFAP, rabbit polyclonal from Dako, 1/2000), Proliferating Cell Nuclear Antigen (PCNA, mouse monoclonal from Dako, 1/100), Tyrosin Hydroxylase (TH, rabbit polyclonal from millipore, 1/500), iba 1 (polyclonal rabbit from Wako, 1/500), HSV-TK (mouse monoclonal, Gentaur, 1/100), ki67 (monoclonal rabbit, Abcam, 1/100 or mouse, Chemicon, 1/100).

[2] = test system: TK-PSC (HS415 pluripotent stem cells expressing HSV-TK under the Ki67 promoter); assay: Calcein cell viability assay, ganciclovir on TK-PSC; assay type: cell-based, human
Protocol: (§8) Cell Proliferation Measurement by Calcein Assay:
(§9) Cells were plated onto a 96 wells pre-coated with polyornothine+ECM (1/50). Respectively 1000 cells for pluripotent stem cells, 5000 cells for early NPC and 30000 cells for late NPC. Ganciclovir (Cemevene diluted in PBS, Roche) treatment was added the day after cell plating for PSC, 3 days later for early NPC and one week later for late NPC. Calcein (2 μM) was added for different time course of ganciclovir treatment (24H to 96H). Cell survival was measured by calcein integration after 24h of incubation in a 37° C. incubator.

TK-NPCs = assay: Calcein cell viability assay, ganciclovir time course on TK-NPC; assay type: cell-based, human; conditions: 40 μM
Protocol: as §8, §9

control neurons = assay: Calcein cell viability assay, ganciclovir on control neurons; assay type: cell-based, human; conditions: concentrations up to 40 μM
Protocol: as §8, §9

non-transduced cells = assay: Cell proliferation assay, non-transduced cells; assay type: cell-based
Protocol: as §1, §2

TK-NPC transplants = assay: Transplantation of 2-3 week NPC neurospheres into striatum and ganciclovir treatment; assay type: in vivo, mice
Protocol: as §3, with “Ganciclovir (or PBS control) treatment was given from day 4 to day 19 post-transplantation.” left out
as §4, §5, §6, §7
BrdU (100 mg/kg, Millipore) was injected intraperitoneally twice daily for 3 consecutive days. Mice were sacrificed 5 days later and perfused, through the heart, with PBS and 4% paraformaldehyde in PBS. […]

[3] = test system: HEK cells transfected with HSV-TK plasmid; assay: Cell proliferation/viability assay, high copy number plasmid, HSV-TK; assay type: cell-based
Protocol: (§10) In further experiments, cell proliferation assay was performed using different suicide gene constructs in combination with various drugs, such as acyclovir, ganciclovir, or pencilovir. In the first assay, a kinase from human cytomegalovirus (CMV), UL97, was used as a novel suicide gene. The HEK cells were transfected with a high copy number of the respective plasmids.

[4] = test system: HEK cells transfected with UL97 under the UBI promoter; assay: Cell proliferation/viability assay, high copy number plasmid, UL97; assay type: cell-based
Protocol: as §10

[5] = test system: regular PSCs (not transduced with the TK construct); assay: Calcein cell viability assay, ganciclovir on control PSC; assay type: cell-based, human; conditions: concentrations of 40 μM
Protocol: as §8, §9

## Nc1nc2c(ncn2COCCO)c(=O)[nH]1 [acyclovir, Acyclovir]
HSV-TK-transduced cells
  concentration needed to kill HSV-TK-transduced cells: very high concentrations
SR39-transduced cells
  concentration needed to kill SR39-transduced cells: very high concentrations

## Nc1nc(O)c2ncn(COC(CO)CO)c2n1 [ganciclovir, Ganciclovir]
[1]; 15 days ganciclovir starting 4 days post-transplantation, daily intra-peritoneal injection
  teratoma formation, early ganciclovir treatment: no observed teratomas; also recorded: absence of teratoma formation and cell proliferation
[1]; PSC transplanted, early treatment
  development of large tumors (graft surface), early ganciclovir treatment: completely prevented
[1]; PSC transplanted, late treatment
  tumor size (graft surface), late ganciclovir treatment: did not have any effect
[1]; day 4 to 19 post-transplantation, analysed one month after end of treatment
  human cells (HCM) remaining in graft, early ganciclovir treatment: hardly any human cells left; also recorded: barely detectable
[1]; ganciclovir days 30-45 post-transplantation, sacrifice 30 days after end of treatment
  teratoma formation, late ganciclovir treatment: teratoma formation in both; also recorded: no difference
[2]; 40 μM
  time in which TK PSCs were killed: ≤ 4 days
[2]; 96h exposure
  sensitivity of TK PSCs to ganciclovir exposure: highly sensitive
[2]; TK PSCs, 96h exposure
  ganciclovir concentration at which loss of cells was almost complete: 10 µM
  ganciclovir concentration at which loss of cells was observed: 2.5 µM
HSV-TK-transduced cells
  concentration needed to kill HSV-TK-transduced cells: relatively low concentration
TK-NPCs; TK-NPCs after 1 week of neurosphere differentiation
  time to complete killing of TK-NPCs: 8 days
TK-NPCs; TK-NPCs after 2 weeks of neurosphere differentiation
  killing of TK-NPCs: not killed
Control neurons
  effect on control neurons: not affected
non-transduced cells; at high concentrations
  toxicity to non-transduced cells: toxic
TK-NPC transplants; NPC derived from 2-3 weeks old neurospheres
  size of NPC transplants (graft surface): not affected
TK-NPC transplants; NPC transplants
  PCNA / Ki67 staining pattern of transplants: did not alter this pattern
TK-NPC transplants; immunofluorescence 7 weeks after transplantation
  neural markers of transplanted cells (beta 3 tubulin, TH, nestin): None of these markers were affected
TK-NPC transplants; treated on days 7-22 following transplantation, sacrifice 4 weeks after end of treatment
  graft development, PBS versus ganciclovir: No difference was observed
SR39-transduced cells
  concentration needed to kill SR39-transduced cells: relatively low concentration
[3]
  sensitivity of HSV-TK-transfected HEK cells: sensitivity
[4]
  sensitivity of UL97-transfected HEK cells: showed sensitivity
[5]
  effect on regular (control) PSCs: resistant; also recorded: no ganciclovir toxicity is observed

## Nc1nc2c(ncn2CCC(CO)CO)c(=O)[nH]1 [penciclovir, Penciclovir]
HSV-TK-transduced cells
  concentration needed to kill HSV-TK-transduced cells: relatively low concentrations
non-transduced cells
  toxicity in untransduced cells: did not show any toxicity
SR39-transduced cells
  concentration needed to kill SR39-transduced cells: relatively low concentrations
